For three compounds, binding results are on record in article PMC4775224 (2015).

The experiment has as its system TPP riboswitch aptamer (wtAtRs1 + wtAtRs2 + wtAtRs3, splint-ligated) (RNA, riboswitch, amino-modified U (5-N-U) at 59 (U replaces G88 in paper numbering); amino-modified U (5-LC-N-U) at 123 (U25 in paper numbering)) AUCGAGAGGGACACGGGGAAACACCACCAUAUAUGCACCAGGGGUGCUUGAACCAGGAUAGCCUGCGAAAAGGCGGGCUAUCCGGGACCAGGCUGAGAAAGUCCCUUUGAACCUGAACAGGGUAAUGCCUGCGCAGGGAGUGUGCUAACAAGGUCACCAUCAUCCUGACUAGAGUCCUUGG
The experiment in a line: optical-trap force spectroscopy with smFRET. The conditions noted are these: 130 mM KCl, 4 mM Mg2+, 50 mM HEPES pH 7.5, 1 mM EDTA, oxygen scavengers.

Turning to `Cc1ncc(C[n+]2csc(CCOP(=O)(O)OP(=O)(O)O)c2C)c(N)n1`, where the note is “5 µM, 50 µM and 2 mM TPP, weak then strong state”, the binding result is “yes”.
For `Cc1ncc(C[n+]2csc(CCO)c2C)c(N)n1`, the binding result (2 mM thiamine (saturating), arms not docked) is reported as “yes”.
Take `Cc1ncc(C[n+]2csc(CCOP(=O)(O)O)c2C)c(N)n1`: the binding entry (2 mM TMP (saturating), arms not docked) is listed as “yes”.
